# From patent US11136296B2, “Substituted N-arylethyl-2-arylquinoline-4-carboxamides and use thereof” (Bayer Aktiengesellschaft, priority 2017, dated 2021)
# Target: FP receptor (Homo sapiens (Human), UniProt P43088)
# Test: In vitro test of inhibition of human FP receptor activity (PGF2α-induced calcium flux in FP-expressing CHEM1 cells)
# Type: cell-based
# Details: PGF2α-induced (2 nM) calcium flux in FP-expressing CHEM1 cells; some as mean values from multiple determinations
# From the text: Table 1 below lists the IC50 values from this assay for individual working examples of the invention (some as mean values from multiple independent individual determinations): […]
# FP receptor, sequence (P43088 whole entry): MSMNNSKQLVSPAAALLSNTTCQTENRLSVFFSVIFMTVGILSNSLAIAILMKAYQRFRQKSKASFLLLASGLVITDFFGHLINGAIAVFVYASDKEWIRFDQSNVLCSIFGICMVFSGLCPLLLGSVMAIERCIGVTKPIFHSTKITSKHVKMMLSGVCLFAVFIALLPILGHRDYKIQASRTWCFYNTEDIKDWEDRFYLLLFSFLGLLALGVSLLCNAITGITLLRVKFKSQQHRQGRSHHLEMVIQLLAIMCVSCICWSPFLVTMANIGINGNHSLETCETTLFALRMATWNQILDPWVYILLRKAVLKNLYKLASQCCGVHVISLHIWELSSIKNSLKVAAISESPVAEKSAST
row,IC50 [nM],Structure (SMILES)
1,96,"Cc1cccc(C(CNC(=O)c2c(C)c(-c3ccccc3)nc3ccc(Br)cc23)CC(=O)O)c1 (single isomer, unassigned) [Example 94, 4-{[(6-Bromo-3-methyl-2-phenylquinolin-4-yl)carbonyl]amino}-3-(3-methylphenyl)butanoic Acid]"
2,84,"Cc1cccc(C(CNC(=O)c2c(C)c(-c3ccccc3)nc3ccc(Br)cc23)CC(=O)O)c1 (single isomer, unassigned) [Example 95, 4-{[(6-Bromo-3-methyl-2-phenylquinolin-4-yl)carbonyl]amino}-3-(3-methylphenyl)butanoic Acid]"
3,92,"Cc1c(-c2ccccc2)nc2ccc(Br)cc2c1C(=O)NCC(c1ccccc1Cl)C(C)(C)C(=O)O (single isomer, unassigned) [Example 112, 4-{[(6-Bromo-3-methyl-2-phenylquinolin-4-yl)carbonyl]amino}-3-(2-chlorophenyl)-2,2-dimethylbutanoic Acid]"
4,62,"Cc1c(-c2ccccc2)nc2ccc(Br)cc2c1C(=O)NCC(c1ccccc1Cl)C(C)(C)C(=O)O (single isomer, unassigned) [Example 113, 4-{[(6-Bromo-3-methyl-2-phenylquinolin-4-yl)carbonyl]amino}-3-(2-chlorophenyl)-2,2-dimethylbutanoic Acid]"
5,400,"Cc1c(-c2ccccc2)nc2ccc(Br)cc2c1C(=O)NCC(c1ccccc1Cl)S(=O)(=O)CC(=O)O (single isomer, unassigned) [Example 198, (+/−)-{[2-{[(6-Bromo-3-methyl-2-phenylquinolin-4-yl)carbonyl]amino}-1-(2-chlorophenyl)ethyl]sulfonyl}acetic Acid]"
6,25,"Cc1c(-c2ccccc2)nc2ccc(Br)cc2c1C(=O)NCC(c1ccccc1Cl)S(=O)(=O)CC(=O)O (single isomer, unassigned) [Example 199, {[2-{[(6-Bromo-3-methyl-2-phenylquinolin-4-yl)carbonyl]amino}-1-(2-chlorophenyl)ethyl]sulfonyl}acetic Acid]"
7,8.8,"Cc1c(-c2ccccc2)nc2ccc(Br)cc2c1C(=O)NCC(CCC(=O)O)c1cc(F)cc(F)c1F (single isomer, unassigned) [Example 232, 5-{[(6-Bromo-3-methyl-2-phenylquinolin-4-yl)carbonyl]amino}-4-(2,3,5-trifluorophenyl)pentanoic Acid]"
8,25,"Cc1c(-c2ccccc2)nc2ccc(Br)cc2c1C(=O)NCC(CCC(=O)O)c1cc(F)cc(F)c1F (single isomer, unassigned) [Example 233, 5-{[(6-Bromo-3-methyl-2-phenylquinolin-4-yl)carbonyl]amino}-4-(2,3,5-trifluorophenyl)pentanoic Acid]"
9,270,"Cc1c(-c2ccccc2)nc2ccc(Br)cc2c1C(=O)NCC(C(=O)O)c1ccccc1 (single isomer, unassigned; (+)) [Example 3, (+)-3-{[(6-Bromo-3-methyl-2-phenylquinolin-4-yl)carbonyl]amino}-2-phenylpropanoic Acid]"
10,7.2,"COc1ccccc1C(CNC(=O)c1c(C)c(-c2ccccc2)nc2ccc(Br)cc12)C(=O)O (single isomer, unassigned; (+)) [Example 9, (+)-3-{[(6-Bromo-3-methyl-2-phenylquinolin-4-yl)carbonyl]amino}-2-(2-methoxyphenyl)propanoic Acid]"
11,190,"Cc1c(-c2ccccc2)nc2ccc(Br)cc2c1C(=O)NCC(C)(C(=O)O)c1ccccc1 (single isomer, unassigned; (+)) [Example 15, (+)-3-{[(6-Bromo-3-methyl-2-phenylquinolin-4-yl)carbonyl]amino}-2-methyl-2-phenylpropanoic Acid]"
12,120,"CCC(CNC(=O)c1c(C)c(-c2ccccc2)nc2ccc(Br)cc12)(C(=O)O)c1ccccc1 (single isomer, unassigned; (+)) [Example 18, (+)-2-({[(6-Bromo-3-methyl-2-phenylquinolin-4-yl)carbonyl]amino}methyl)-2-phenylbutanoic Acid]"
13,97,"Cc1c(-c2ccccc2)nc2ccc(Br)cc2c1C(=O)NCC(O)(C(=O)O)c1ccccc1 (single isomer, unassigned; (+)) [Example 20, (+)-3-{[(6-Bromo-3-methyl-2-phenylquinolin-4-yl)carbonyl]amino}-2-hydroxy-2-phenylpropanoic Acid]"
14,340,"Cc1c(-c2ccccc2)nc2ccc(Br)cc2c1C(=O)NCC(C)(C(=O)O)c1ccccc1F (single isomer, unassigned; (+)) [Example 30, (+)-3-{[(6-Bromo-3-methyl-2-phenylquinolin-4-yl)carbonyl]amino}-2-(2-fluorophenyl)-2-methylpropanoic Acid]"
15,190,"Cc1c(-c2ccccc2)nc2ccc(Br)cc2c1C(=O)NCC(C)(C(=O)O)c1c(F)cccc1F (single isomer, unassigned; (+)) [Example 33, (+)-3-{[(6-Bromo-3-methyl-2-phenylquinolin-4-yl)carbonyl]amino}-2-(2,6-difluorophenyl)-2-methylpropanoic Acid]"
16,160,"Cc1c(-c2ccccc2)nc2ccc(Br)cc2c1C(=O)NCC(C)(C(=O)O)c1ccccc1Cl (single isomer, unassigned; (+)) [Example 37, (+)-3-{[(6-Bromo-3-methyl-2-phenylquinolin-4-yl)carbonyl]amino}-2-(2-chlorophenyl)-2-methylpropanoic Acid]"
17,34,"Cc1c(-c2ccccc2)nc2ccc(Br)cc2c1C(=O)NCC(F)(C(=O)O)c1ccccc1 (single isomer, unassigned; (+)) [Example 40, (+)-3-{[(6-Bromo-3-methyl-2-phenylquinolin-4-yl)carbonyl]amino}-2-fluoro-2-phenylpropanoic Acid]"
18,140,"Cc1c(-c2ccccc2)nc2ccc(Br)cc2c1C(=O)NCC(C)(C(=O)O)c1cccc(C(F)(F)F)c1 (single isomer, unassigned; (+)) [Example 43, (+)-3-{[(6-Bromo-3-methyl-2-phenylquinolin-4-yl)carbonyl]amino}-2-methyl-2-[3-(trifluoromethyl)phenyl]propanoic Acid]"
19,230,"COc1cccc(C(CNC(=O)c2c(C)c(-c3ccccc3)nc3ccc(Br)cc23)C(=O)O)c1 (single isomer, unassigned; (+)) [Example 46, (+)-3-{[(6-Bromo-3-methyl-2-phenylquinolin-4-yl)carbonyl]amino}-2-(3-methoxyphenyl)propanoic Acid]"
20,69,"Cc1c(-c2ccccc2)nc2ccc(Br)cc2c1C(=O)NCC(C(=O)O)c1cccc(Cl)c1 (single isomer, unassigned; (+)) [Example 49, (+)-3-{[(6-Bromo-3-methyl-2-phenylquinolin-4-yl)carbonyl]amino}-2-(3-chlorophenyl)propanoic Acid]"
21,71,"Cc1cccc(C(CNC(=O)c2c(C)c(-c3ccccc3)nc3ccc(Br)cc23)C(=O)O)c1 (single isomer, unassigned; (+)) [Example 52, (+)-3-{[(6-Bromo-3-methyl-2-phenylquinolin-4-yl)carbonyl]amino}-2-(3-methylphenyl)propanoic Acid]"
22,78,"COc1ccccc1C(O)(CNC(=O)c1c(C)c(-c2ccccc2)nc2ccc(Br)cc12)C(=O)O (single isomer, unassigned; (+)) [Example 55, (+)-3-{[(6-Bromo-3-methyl-2-phenylquinolin-4-yl)carbonyl]amino}-2-hydroxy-2-(2-methoxyphenyl)propanoic Acid]"
23,9.7,"COc1cccc(F)c1C(CNC(=O)c1c(C)c(-c2ccccc2)nc2ccc(Br)cc12)C(=O)O (single isomer, unassigned; (+)) [Example 58, (+)-3-{[(6-Bromo-3-methyl-2-phenylquinolin-4-yl)carbonyl]amino}-2-(2-fluoro-6-methoxyphenyl)propanoic Acid]"
24,120,"COc1ccccc1C(C)(CNC(=O)c1c(C)c(-c2ccccc2)nc2ccc(Br)cc12)C(=O)O (single isomer, unassigned; (+)) [Example 60, (+)-3-{[(6-Bromo-3-methyl-2-phenylquinolin-4-yl)carbonyl]amino}-2-(2-methoxyphenyl)-2-methylpropanoic Acid]"
25,230,"Cc1c(-c2ccccc2)nc2ccc(Br)cc2c1C(=O)NCC(C)(C(=O)O)c1c(F)cccc1Cl (single isomer, unassigned; (+)) [Example 61, (+)-3-{[(6-Bromo-3-methyl-2-phenylquinolin-4-yl)carbonyl]amino}-2-(2-chloro-6-fluorophenyl)-2-methylpropanoic Acid]"
26,220,"Cc1c(-c2ccccc2)nc2ccc(Br)cc2c1C(=O)NCC(CC(=O)O)c1ccccc1 (single isomer, unassigned; (+)) [Example 65, (+)-4-{[(6-Bromo-3-methyl-2-phenylquinolin-4-yl)carbonyl]amino}-3-phenylbutanoic Acid]"
27,370,"Cc1c(-c2ccccc2)nc2ccc(Br)cc2c1C(=O)NCC(CC(=O)O)c1ccc(Cl)cc1 (single isomer, unassigned; (+)) [Example 67, (+)-4-{[(6-Bromo-3-methyl-2-phenylquinolin-4-yl)carbonyl]amino}-3-(4-chlorophenyl)butanoic Acid]"
28,85,"Cc1ccccc1C(CNC(=O)c1c(C)c(-c2ccccc2)nc2ccc(Br)cc12)CC(=O)O (single isomer, unassigned; (+)) [Example 77, (+)-4-{[(6-Bromo-3-methyl-2-phenylquinolin-4-yl)carbonyl]amino}-3-(2-methylphenyl)butanoic Acid]"
29,240,"Cc1c(-c2ccccc2)nc2ccc(Br)cc2c1C(=O)NCC(C)(CC(=O)O)c1ncccc1Cl (single isomer, unassigned; (+)) [Example 86, (+)-4-{[(6-Bromo-3-methyl-2-phenylquinolin-4-yl)carbonyl]amino}-3-(3-chloropyridin-2-yl)-3-methylbutanoic Acid]"
30,27,"Cc1c(-c2ccccc2)nc2ccc(Br)cc2c1C(=O)NCC(CC(=O)O)c1c(F)cccc1Cl (single isomer, unassigned; (+)) [Example 89, (+)-4-{[(6-Bromo-3-methyl-2-phenylquinolin-4-yl)carbonyl]amino}-3-(2-chloro-6-fluorophenyl)butanoic Acid]"
